For one test, the target named is T1, PAR2 (F2RL1) (Homo sapiens, UniProt P55085).
T1 sequence (P55085 26-397): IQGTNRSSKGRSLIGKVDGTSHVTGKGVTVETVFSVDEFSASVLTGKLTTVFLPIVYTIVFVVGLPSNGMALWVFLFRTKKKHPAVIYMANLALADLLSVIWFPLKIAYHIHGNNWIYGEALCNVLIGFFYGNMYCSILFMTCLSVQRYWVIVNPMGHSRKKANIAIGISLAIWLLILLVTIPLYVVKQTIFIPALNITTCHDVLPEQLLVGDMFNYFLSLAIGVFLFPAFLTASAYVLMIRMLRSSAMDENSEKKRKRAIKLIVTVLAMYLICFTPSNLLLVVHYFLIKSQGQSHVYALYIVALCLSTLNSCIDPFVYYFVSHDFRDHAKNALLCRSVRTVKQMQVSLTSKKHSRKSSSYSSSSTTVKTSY
Nature of the test: β-arrestin recruitment, DiscoverX profiling service, PAR2. The conditions noted are these: for Max Response: in % (unit assumed). The test is classed as cell-based. For orientation: Recruitment of arrestin is a read-out of receptor activation apart from second messengers.

The test system of another test is parental 1321N1 cells. Nature of the test: Ca^2+ flux assay, agonist mode, parental 1321N1 cells. The test is classed as cell-based. Further details: Ca2+ response (Fig 2c), individual replicate values: unit not given here. The note with it: for Ca2+ response (Fig 2c), individual replicate values: control. On the procedure:
Cells were loaded with Fluo-8 NW calcium dye (AAT Bioquest) for 30 min at 37 °C before compounds in Hank’s balanced salt solution (HBSS, ThermoFisher Scientific) with 20 mM HEPES (ThermoFisher Scientific), 0.1% bovine serum albumin (BSA, Sigma) and 0.5% DMSO were added and simultaneously evaluated for changes in intracellular [Ca^2+] using FLIPR TETRA (Molecular Devices) to detect agonism. For each concentration, the difference between the maximum peak Ca^2+ response and baseline response is reported. […] Antagonism experiments were also carried out on 1321N1-PAR2[WT], 1321N1-PAR2[F154A], and 1321N1-PAR2[G157C] as described. Experiments with trypsin in 1321N1-hPAR2 cells were performed in the presence of 1 µM Vorapaxar (Chemtronica) to remove any interference of PAR1 activity. […] Antagonism experiments for CHO-hPAR2 and HT-29 cells were performed in 96-well plates at 30,000 cells/well. Cells were loaded with Fluo-3 AM calcium dye (Sigma-Aldrich) for 60 min at 37 °C in HBSS with 1% FBS, 0.2% pluronic acid, 20 mM HEPES and 2.5 mM probenecid prior to the addition of antagonist. The antagonist was pre-incubated for 60 min at 37 °C followed by the addition of bovine trypsin (30 nM) at EC80. Intracellular [Ca^2+] flux was measured using FLIPR TETRA (Molecular Devices) and the difference between the maximum peak Ca^2+ response and baseline response is reported.

Test [1] deals with T2, PAR2 stabilised receptor (StaR) (Homo sapiens, UniProt P55085).
T2 sequence (P55085 55-377): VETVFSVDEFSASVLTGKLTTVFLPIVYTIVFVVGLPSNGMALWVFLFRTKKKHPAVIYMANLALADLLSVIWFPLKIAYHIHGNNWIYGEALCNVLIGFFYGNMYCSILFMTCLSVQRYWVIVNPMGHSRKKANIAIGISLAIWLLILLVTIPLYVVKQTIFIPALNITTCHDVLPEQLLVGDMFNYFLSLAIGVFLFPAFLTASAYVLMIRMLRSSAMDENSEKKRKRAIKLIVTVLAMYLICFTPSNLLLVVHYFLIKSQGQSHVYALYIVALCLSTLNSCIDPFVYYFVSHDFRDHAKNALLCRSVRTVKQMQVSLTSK
Nature of the test: Surface plasmon resonance (SPR) binding, single-cycle kinetics. The note with it: n of 2, earlier manuscript version quoted by reviewer. In general terms: Surface plasmon resonance follows binding to a sensor surface in real time, without labels.

For test [2], the target named is T2, PAR2 stabilised receptor (StaR). The note with it: SPR, previously reported; cited from earlier work.

Values joined by “and” are separate entries in the source; they are usually repeats but may differ in a detail not shown here. Identical values can stand only once.

As a reminder, the EC50 is the concentration giving half of the maximal effect. Usually IC50 stands for the point on the concentration scale where inhibition reaches its midpoint. The term Kd denotes the concentration at which binding is half-saturated.

Take `CNC(=O)[C@H]1CC[C@@H](NC(=O)[C@H](CC2CCCCC2)NC(=O)c2cn(Cc3ccccc3)nn2)c2ccccc21` [AZ2429]: the “Curve Bottom” value at PAR2 (F2RL1) (Agonist format) is on record as -2. For the same compound, on PAR2 (F2RL1) (Agonist format), the “Curve Top” value came to 103.3. The compound further came in with a Hill at PAR2 (F2RL1) (Agonist format) of 1.29. For the same compound, the “Max Response” value on PAR2 (F2RL1) (Agonist format) came to 104.3; at PAR2 (F2RL1) (Antagonist format) it was 4.5. On PAR2 (F2RL1) (Agonist format, read-out: RC50 (EC50)), the EC50 turned out to be 25 nM. Also, the IC50 on PAR2 (F2RL1) (Antagonist format, read-out: RC50 (IC50)) is above 50000 nM. The “Ca^2+ mobilisation in parental 1321N1 cells” value in the test with parental 1321N1 cells was “No Ca^2+ mobilisation could be detected”. Besides, the “Ca2+ response (Fig 2c), individual replicate values” in the test with parental 1321N1 cells ([compound],M -4.30103) was -0.222 and -3.029 and 1.6687 and -8.186; with parental 1321N1 cells ([compound],M -4.77815), -2.571 and -2.17 and -0.3366 and -1.253; in the test on parental 1321N1 cells ([compound],M -5.25527) it was 2.7 and 1.783 and -0.795 and 0.5801; in the test on parental 1321N1 cells ([compound],M -5.73239), 1.6114 and 0.4655 and 2.528 and 1.21; with parental 1321N1 cells ([compound],M -6.20952), -1.884 and -0.222 and -1.998 and 1.6114; in the test on parental 1321N1 cells ([compound],M -6.68664) it was 5.507 and 2.986 and 0.6947 and 2.299. Also, the “Ca2+ response (Fig 2c), individual replicate values” with parental 1321N1 cells ([compound],M -7.16376) is 5.851 and 0.8093 and -0.4512 and 3.674; in the test on parental 1321N1 cells ([compound],M -7.64088) it was -0.2793 and 2.6427 and 2.471 and 0.06446; in the test with parental 1321N1 cells ([compound],M -8.118), -2.571 and 1.726 and 3.502 and 0.5801; with parental 1321N1 cells ([compound],M -8.59512), -3.717 and -6.009 and -11.1079 and -4.175.
On to `C[C@@H](C1CCCCC1)n1c(-c2cc3c(cc2Br)OCO3)nc2cc(C(=O)Nc3ccc(C#N)cc3)ccc21` [AZ3451], for which the affinity in test [1], expressed as Kd, was 14 nM.
With `CCCc1cc(F)ccc1C(O)c1ncc[nH]1` (centres unmarked) [AZ8838], the residence time entry in test [2] is listed as “about 84 min”.
